Experimental data reported in BindingDB's records for PubMed 33569941 (n/a, 2021).

Molecular target: Tumor necrosis factor (Homo sapiens, UniProt P01375)
Assay: Inhibition of human TNF-alpha secretion stimulated by LPS

Tumor necrosis factor, sequence (P01375 whole entry): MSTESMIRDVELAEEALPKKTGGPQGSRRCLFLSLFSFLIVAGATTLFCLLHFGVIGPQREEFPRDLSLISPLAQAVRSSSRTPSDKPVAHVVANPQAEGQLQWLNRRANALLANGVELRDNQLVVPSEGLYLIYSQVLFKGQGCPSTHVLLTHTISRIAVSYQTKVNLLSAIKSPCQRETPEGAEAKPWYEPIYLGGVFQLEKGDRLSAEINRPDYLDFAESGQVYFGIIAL

SMILES: Cc1ccc(Cl)cc1Nc1cc(Cl)c2nonc2c1[N+](=O)[O-]
- EC50: 300 nM
